Source: patent EP0167945A2, “Phenylethylaminopropiophenone derivatives, process for their preparation et medicines containing them” (Troponwerke GmbH & Co. KG, priority 1984, dated 1986)
Where a name gives a salt, the structure may show the parent alone.

Key:
[1] = test system: durch Tetrabenazin induzierte Ptosis; experiment: Tetrabenazine antagonism (antagonism of tetrabenazine-induced ptosis); assay type: in vivo, Mäusen; settings: Mus musculus, ip; dose at which ptosis induced by 20 mg/kg i.p. Tetrabenazin is reduced by 50 %; mice; read-out: DE50 (the source's name)
Text: (§1) Die Verbindungen wurden auf anxiolytische, nootrope und antidepressive Eigenschaften geprüft. Als Leittest für die anxiolytische Wirkung diente die Antagonisierung der Fußschock-induzierten Aggressivität nach Tedeschi^1; für die antidepressive Wirkung der Antitetrabenazin^2- und Amphetaminpotenzierungstest . Beispielsweise wurden für die antidepressiven Wirkungen der erfindungsgemäßen Substanzen folgende Werte erhalten:
1) Tetrabenazin Antagonismus
Antidepressiv wirksame Substanzen antagonisieren die durch Tetrabenazin induzierte Ptosis bei Mäusen. Der DE50-Wert gibt diejenige Dosis an, bei der die durch 20 mg/kg i.p. Tetrabenazin induzierte Ptosis zu 50 % reduziert ist. Dazu seien Beispiele genannt:
• 1 Tedeschi et al., J. Pharmacol. Exp. Ther. 129, 28-34, 1959 • 2 J. L. Howard et al., in: Antidepressants: Neurochemical,.Behavioral and Clinical Perspectives, herausgegeben von S. J. Enna et al., Raven Press N. Y., S. 107-120, 1981.

[2] = test system: Amphetamininduzierte stereotype Verhalten; experiment: Amphetamine potentiation (potentiation of amphetamine-induced stereotyped behaviour); assay type: in vivo, Ratte; settings: ip; dose at which behaviour induced by 2 mg/kg DL-Amphetaminsulfat i. v. is enhanced by 50 %; rat; read-out: DE50 (the source's name)
Text: as §1
2) Amphetamin-Potenzierung
Antidepressiv wirksame Substanzen potenzieren das Amphetamininduzierte stereotype Verhalten bei der Ratte.
Der angegebene DE50-Wert ist die Dosis, bei der das Amphetamininduzierte Verhalten nach Gabe von 2 mg/kg DL-Amphetaminsulfat i. v. um 50 % verstärkt ist.

SMILES: CC(NC(C)(C)Cc1ccccc1)C(=O)c1ccccc1 (stereo not shown) [Beispiel 4, 1-Phenyl-2-(1,1-dimethyl-2-phenylethylamino)-propan-1-onhydrochlorid]
- ED50 [1]: 19 mg/kg

SMILES: COc1ccc(CC(C)(C)NC(C)C(=O)c2cccc(Cl)c2)cc1 (stereo not shown) [Beispiel 5, 1-(3-Chlorphenyl)-2-(1,1-dimethyl-2-(4-methoxyphenyl)ethylamino)propan-1-onhydrochlorid]
- ED50 [1]: 6.5 mg/kg

SMILES: CC(NC(C)(C)Cc1ccc(Cl)cc1)C(=O)c1cccc(Cl)c1 (stereo not shown) [Beispiel 3, 1-(3-Chlorphenyl)-2-(1,1-dimethyl-2-(4-chlor-phenyl)ethylamino)propan-1-onhydrochlorid]
- ED50 [1]: 12 mg/kg
- ED50 [2]: 9 mg/kg

SMILES: CC(NC(C)(C)Cc1ccccc1)C(=O)c1cccc(C(F)(F)F)c1 (stereo not shown) [Beispiel 7, 1-(3-Trifluormethylphenyl)-2-(1,1-dimethyl-2-phenylethylamino)propan-1-onhydrochlorid]
- ED50 [1]: 10 mg/kg

SMILES: CC(NC(C)(C)Cc1ccccc1)C(=O)c1cccc(Cl)c1 (stereo not shown) [Beispiel 1, 1-(3-Chlorphenyl)-2-(1,1-dimethyl-2-phenylethylamino)propan-1-onhydrochlorid]
- ED50 [1]: 1 mg/kg
- ED50 [2]: 13 mg/kg

SMILES: CC(Cc1ccccc1)NC(C)C(=O)c1cccc(Cl)c1 (stereo not shown) [Beispiel 2, 1-(3-Chlorphenyl)-2-(1-methyl-2-phenyl-ethylamino) propan-1-onhydrochlorid]
- ED50 [1]: 14 mg/kg
- ED50 [2]: 6 mg/kg

SMILES: CC(NC(C)(C)Cc1ccccc1)C(=O)c1cccc(F)c1 (stereo not shown) [Beispiel 6, 1-(3-Fluorphenyl)-2-(1,1-dimethyl-2-phenylethylamino)propan-1-onhydrochlorid]
- ED50 [1]: 6 mg/kg
